Test results: PMC3025705 (European journal of nuclear medicine and molecular imaging, 2010)

Test system: human sst2 receptor
Experiment: Immunofluorescence microscopy based sst2 internalization assay
Assay type: cell-based
Details: HEK-sst2 cells, 30 min at 37°C, 10 nM

- sst2 internalization by positive control: sub-maximal internalization effect
Substance: Tyr^3-octreotide [TOC]
